Test results taken from the NIST ThermoML archive (doi:10.1016/j.jct.2006.03.018).

Tests used:
[1] = xn = mol fraction of the nth substance listed; conditions: 308.15 K, 101 kPa, Liquid
[2] = refractive index (Na D-line) (dimensionless); xn = mol fraction of the nth substance listed; conditions: 101 kPa, Liquid

COc1ccccc1 [anisole] + CCO
[1]
Conditions	mass density [kg/m3]	viscosity [mPa·s]
x1 = 0.0998	813.62	0.831
x1 = 0.1985	843.52	0.777
x1 = 0.2976	869.14	0.768
x1 = 0.3973	890.99	0.747
x1 = 0.5008	910.89	0.749
x1 = 0.5968	926.92	0.727
x1 = 0.7015	942.81	0.774
x1 = 0.7935	955.42	0.772
x1 = 0.9014	968.84	0.792
x1 = 1	979.73	0.854

refractive index, [2]
Conditions	x1 = 0.0998	x1 = 0.1985	x1 = 0.2976	x1 = 0.3973	x1 = 0.5008	x1 = 0.5968	x1 = 0.7015	x1 = 0.7935	x1 = 0.9014	x1 = 1
298.15 K	1.3856	1.4085	1.4284	1.4459	1.461	1.4737	1.4864	1.4955	1.5046	1.5137
303.15 K	1.3838	1.4066	1.4261	1.4428	1.4586	1.4711	1.4842	1.4934	1.5031	1.5113
308.15 K	1.3814	1.4039	1.4241	1.4402	1.4567	1.4695	1.4816	1.4907	1.5008	1.5088
